Literature values, collected in patent US20180207149A1, “METHODS AND COMPOSITIONS FOR ENHANCING IMMUNE RESPONSE TO VACCINATION” (priority 2015, published 2018).

System: immunizing influenza vaccine strains
Settings: elderly subjects with chronic illness; topical, before intradermal trivalent influenza vaccine

In the case of CC(C)Cn1cnc2c(N)nc3ccccc3c21 [imiquimod], the “immunogenicity against the immunizing influenza vaccine strains” value is given as “expedited, augmented and prolonged the immunogenicity”.
